Values quoted from earlier work in PMC12377202, “Design, synthesis, and cytotoxic evaluation of quinazoline-based derivatives as VEGER-2 inhibitors: comparative study against EGFR kinase activity, induction of apoptosis, and molecular docking study” (RSC Advances, 2025).
Values after ≈ are worked out from the molar mass of the structure shown. Read-outs that look alike come from different tables or passages of the source.

Legend:
VEGFR-2 kinase = conditions: cited from earlier work
HepG2 = conditions: cited from earlier work
PC3 = conditions: cited from earlier work
MCF-7 = conditions: cited from earlier work
WI-38 = conditions: read-out: IC50 normal WI-38 cells; cited from earlier work

| SMILES | IC50 (VEGFR-2 kinase; read-out: VEGFR-2 inhibition IC50) [µM] | IC50 HepG2 (HepG2) [µg/mL] | IC50 PC3 (PC3) [µg/mL] | IC50 MCF-7 (MCF-7) [µg/mL] | IC50 (VEGFR-2 kinase; read-out: IC50 against VEGFR-2 kinase) [µM] | IC50 (WI-38) [µM] |
| --- | --- | --- | --- | --- | --- | --- |
| O=C(Nc1ccc(Oc2nc(Cl)nc3ccccc23)cc1)c1cccnc1 [VIII] | 0.06 | 24.10 (≈ 64 µM) | 40.90 (≈ 109 µM) | 33.40 (≈ 88.6 µM) | – | – |
| O=C(CSc1nc2ccc([N+](=O)[O-])cc2c(=O)n1-c1ccccc1)NNC(=O)c1ccccc1 [VII] | – | 17.23 (≈ 36.2 µM) | 26.10 (≈ 54.9 µM) | 30.85 (≈ 64.9 µM) | 4.6 ± 0.06 | 146 |
